Measurements published in patent US20030013660A1, “Dioxolane analogs for improved inter-cellular delivery” (Shire BioChem Inc., priority 2000, published 2003).
Several values for one entry are separate records, joined by “and”; a condition that tells them apart may be missing. Equal values may be shown once.

What was measured:
MCF-7 [1] = test: MTT assay at 72 hr (24 hr drug exposure, wash, 48 hr); type: cell-based
Procedure: (§1) Exposition of 24hr to drug, washed, and incubated for another 48hr (total of 72hr assay)

CEM/dCK- [2] = test: 3H-TdR incorporation at 72 hr (24 hr drug exposure, wash, 48 hr); type: cell-based; details: for IC50: Homo sapiens, CCRF-CEM, read-out: IC50 in μM (3H-TdR incorporation at 72 hr) CEM/dCK- 24 h, CCRF-CEM deoxycytidine kinase-deficient, 24 h drug exposure, 72 hr assay; for Factor* (Resistance Factor = Ratio of dCK- on Wild-type CCRF-CEM): ratio of IC50 CEM/dCK- to IC50 CCRF-CEM
Procedure: (§2) Exposition of 24 hr to drug, wash, incubated for another 48 hr (total of 72 hr assay)
(§3) (3H-Thymidine Incorporation Assay)

CCRF-CEM [3] = test: as above; type: cell-based; details: Homo sapiens, CCRF-CEM, read-out: IC50 in μM (3H-TdR incorporation at 72 hr) CCRF-CEM 24 h, CCRF-CEM T-cell Leukemia, 72 hr assay
Procedure: as §2, §3

CEM/dCK- [4] = test: MTT or WST-1 assay at 72 hr (24 hr drug exposure, wash, 48 hr); type: cell-based; details: for IC50: read-out: IC50 CEM/dCK- 24 h, MMT or WST-1 at 72 hr, 24 h exposure, single experiment; for Resistance Factor*: CEM/dCK- versus CCRF-CEM, single experiment
Procedure: as §1

H-460 [5] = test: 3H-TdR incorporation at 72 hr (24 hr drug exposure, wash, 48 hr); type: cell-based, Human; details: Homo sapiens, NCI-H460, read-out: IC50 in μM (3H-TdR incorporation at 72 hr) H-460 24 h, H-460 Human Lung Carcinoma, 72 hr assay
Procedure: as §2, §3

MCF-7 [6] = test: as above; type: cell-based, Human; details: Homo sapiens, MCF7, read-out: IC50 in μM (3H-TdR incorporation at 72 hr) MCF-7 24 h, MCF-7 Human Breast Carcinoma, 72 hr assay
Procedure: as §2, §3

SF-268 [7] = test: as above; type: cell-based, Human; details: Homo sapiens, SF-268, read-out: IC50 in μM (3H-TdR incorporation at 72 hr) SF-268 24 h, SF-268 Human Central Nervous System Tumor; 24 h drug exposure, 72 hr assay
Procedure: as §2, §3

SF-268 [8] = test: MTT assay at 72 hr (24 hr drug exposure, wash, 48 hr); type: cell-based; details: Homo sapiens, SF-268, read-out: IC50 SF-268 24 h, MTT at 72 hr, 24 h exposure, single experiment
Procedure: as §1

CCRF-CEM [9] = test: MTT or WST-1 assay at 72 hr (24 hr drug exposure, wash, 48 hr); type: cell-based
Procedure: as §1

H-460 [10] = test: MTT assay at 72 hr (24 hr drug exposure, wash, 48 hr); type: cell-based; details: Homo sapiens, NCI-H460, read-out: IC50 H-460 24 h, MTT at 72 hr, 24 h exposure, single experiment
Procedure: as §1

CEM/dCK- [11] = test: 3H-TdR (3H-thymidine) incorporation assay at 72 hr; type: cell-based; details: Homo sapiens, CCRF-CEM, read-out: IC50 CEM/dCK- 24 h, 24 h drug exposure, wash, another 48 hr; deoxycytidine kinase-deficient CCRF-CEM
Procedure: Table of IC50 Values (μM) for Controls
as §2, §3

H-460 [12] = test: 3H-TdR (3H-thymidine) incorporation assay at 72 hr; type: cell-based, Human; details: 3H-TdR incorporation at 72 hr
MCF-7 [13] = test: 3H-TdR (3H-thymidine) incorporation assay at 72 hr; type: cell-based, Human; details: 3H-TdR incorporation at 72 hr
SF-268 [14] = test: 3H-TdR (3H-thymidine) incorporation assay at 72 hr; type: cell-based, Human; details: 3H-TdR incorporation at 72 hr
[15] = Homo sapiens, MCF7, read-out: IC50 MCF-7 24 h, MTT at 72 hr, 24 h exposure, single experiment
[16] = read-out: IC50 MCF-7 24 h, MTT at 72 hr, 24 h exposure, single experiment
[17] = Homo sapiens, CCRF-CEM, read-out: IC50 CCRF-CEM 24 h, MMT or WST-1 at 72 hr, 24 h exposure, single experiment

| SMILES | IC50 (MCF-7 [1]; [15]) | IC50 (MCF-7 [1]; [16]) | IC50 (CEM/dCK- [2]) | IC50 (CCRF-CEM [3]) | IC50 (H-460 [5]) | IC50 (MCF-7 [6]) | IC50 (SF-268 [7]) | IC50 (CCRF-CEM [9]; [17]) | Factor* (Resistance Factor = Ratio of dCK- on Wild-type CCRF-CEM) (CEM/dCK- [2]) | IC50 (CEM/dCK- [4]) | IC50 (SF-268 [8]) | IC50 (H-460 [10]) | Resistance Factor* (CEM/dCK- [4]) | further results |
| --- | --- | --- | --- | --- | --- | --- | --- | --- | --- | --- | --- | --- | --- | --- |
| Nc1ccn([C@@H]2CO[C@H](COC(=O)C3(c4ccccc4)CC3)O2)c(=O)n1 [Compound 223, 1-PHENYL- CYCLOPROPANECARBOXYLIC ACID 4-(4-AMINO-2-OXO- 2H-PYRIMIDIN-1-YL)- [1,3]DIOXOLAN-2-YL METHYL ESTER] | 1.7 µM | 2.1 µM and 1.4 µM | > 100 µM | 0.062 µM | 0.035 µM | 0.15 µM | 0.25 µM | – | >1613 | > 100 µM | – | – | – | – |
| CC(C)C[C@H](N)C(=O)Nc1ccn([C@@H]2CO[C@H](CO)O2)c(=O)n1 [Compound 257, 2-AMINO-4-METHYL- PENTANOIC ACID [1-(2- HYDROXYMETHYL- [1,3]DIOXOLAN-4-YL)-2- OXO-1,2-DIHYDRO- PYRIMIDIN-4-YL]-AMIDE] | 36 µM | 21 µM | > 100 µM | 4.2 µM | 9.7 µM | 5 µM | 1.6 µM | 4.1 µM | >24 | > 100 µM | > 100 µM | – | – | IC50 (CCRF-CEM [9]; read-out: IC50 CCRF-CEM 24 h, MMT or WST-1 at 72 hr, 24 h exposure, single experiment): 5.4 µM |
| CC(C)C[C@H](NC(=O)[C@H](C)N)C(=O)Nc1ccn([C@@H]2CO[C@H](CO)O2)c(=O)n1.O=C(O)C(F)(F)F.O=C(O)C(F)(F)F [Compound 265, 2-(2-AMINO- PROPIONYLAMINO)-4- METHYL-PENTANOIC ACID [1-(2-HYDROXYMETHYL- [1,3]DIOXOLAN-4-YL)-2- OXO-1,2-DIHYDRO- PYRIMIDIN-4-YL]-AMIDE, BIS TRIFLUOROACETIC ACID SALT] | 77 µM | – | – | – | – | – | – | 30 µM | – | > 100 µM | > 100 µM | > 100 µM | >3 | – |

Continued by falling IC50 (MCF-7 [1]; [15]), values first:

| IC50 (MCF-7 [1]; [15]) | IC50 (MCF-7 [1]; [16]) | IC50 (CEM/dCK- [2]) | IC50 (CCRF-CEM [3]) | IC50 (H-460 [5]) | IC50 (MCF-7 [6]) | IC50 (SF-268 [7]) | IC50 (CCRF-CEM [9]; [17]) | SMILES | Factor* (Resistance Factor = Ratio of dCK- on Wild-type CCRF-CEM) (CEM/dCK- [2]) | IC50 (CEM/dCK- [4]) | IC50 (SF-268 [8]) | IC50 (H-460 [10]) | Resistance Factor* (CEM/dCK- [4]) | further results |
| --- | --- | --- | --- | --- | --- | --- | --- | --- | --- | --- | --- | --- | --- | --- |
| 34 µM | – | – | – | – | – | – | 2.9 µM | CC(C)C[C@H](NC(=O)OCc1ccccc1)C(=O)N[C@@H](C)C(=O)N[C@@H](CC(C)C)C(=O)Nc1ccn([C@@H]2CO[C@H](CO)O2)c(=O)n1 [Compound 267, [1-(1-{1-[1-(2- HYDROXYMETHYL- [1,3]DIOXOLAN-4-YL)-2- OXO-1,2-DIHYDRO- PYRIMIDIN-4- YLCARBAMOYL]-3-METHYL- BUTYLCARBAMOYL}- ETHYLCARBAMOYL)-3- METHYL-BUTYL]-CARBAMIC ACID BENZYL ESTER] | – | > 10 µM | > 10 µM | 93 µM | >3 | – |
| 0.32 µM | – | – | – | – | – | – | 0.48 µM | CC(C)CCCCC(=O)Nc1ccn([C@@H]2CO[C@H](CO)O2)c(=O)n1 [Compound 277, 6-METHYL-HEPTANOIC ACID [1-(2-HYDROXYMETHYL- [1,3]DIOXOLAN-4-YL)-2- OXO-1,2-DIHYDRO- PYRIMIDIN-4-YL]-AMIDE] | – | > 100 µM | 7.3 µM | 2 µM | >208 | IC50 (CEM/dCK- [11]): > 100 µM; IC50 (H-460 [12]; Homo sapiens, NCI-H460, read-out: IC50 H-460 24 h, 24 h drug exposure, wash, another 48 hr): 0.2 µM; IC50 (H-460 [12]; read-out: IC50 H-460 24 h, 24 h drug exposure, wash, another 48 hr): 0.29 µM; IC50 (MCF-7 [13]; Homo sapiens, MCF7, read-out: IC50 MCF-7 24 h, 24 h drug exposure, wash, another 48 hr): 0.013 µM; IC50 (MCF-7 [13]; read-out: IC50 MCF-7 24 h, 24 h drug exposure, wash, another 48 hr): 0.016 µM; IC50 (SF-268 [14]; Homo sapiens, SF-268, read-out: IC50 SF-268 24 h, 24 h drug exposure, wash, another 48 hr): 0.21 µM; IC50 (SF-268 [14]; read-out: IC50 SF-268 24 h, 24 h drug exposure, wash, another 48 hr): 0.19 µM |
